Entries after “also recorded” stand apart in the source; their conditions may differ.

One assay deals with GM12878 cells. Nature of the assay: Hi-Culfite on GM12878 cells treated with 5-azacytidine (methylation inhibition experiment). In kind it is cell-based, human. The conditions noted are these: for CpG C->T conversion: DMSO control 45.37%. The source says:
(§1) Hi-Culfite library construction (FIG. 1A) followed the initial steps of an in situ Hi-C protocol (8). One million cells were crosslinked with formaldehyde; chromatin was digested with a restriction enzyme; and the overhangs were filled in, incorporating a biotinylated nucleotide to mark the fragment ends after ligation. The DNA was then purified and sheared. Next, Applicants performed bisulfite conversion, which converted unmethylated cytosine residues into uracil but left methylated cytosine residues intact. Applicants captured the resulting single-stranded, biotin-marked ligation products on streptavidin beads. Finally, Applicants added adapters to the 3′ end, synthesized the second strand by primer extension, ligated adapters to the 3′ end of the 2nd strand, and PCR amplified with indexed primers.
(§2) Cell Culture: All commercial cell lines were cultured following vendors' recommendations to about 80% confluency before they were harvested and cross-linked in fresh complete medium. For methylation inhibition experiments, cultures of GM12878 (Coriell Institute) and Hap1 (Horizon) were grown for 8 days in medium supplemented with DMSO without drug or with 1 μM or 5 μM 5-azacytidine (Sigma Aldrich) solubilized in DMSO, refreshing the medium/drug every two days.
(§3) Library Construction: Hi-C libraries were prepared using the protocol described (8) Briefly, one million cells were crosslinked with 1% formaldehyde for 10 minutes at room temperature and then quenched with 0.2 M glycine solution. Cells were lysed and nuclei permeabilized with 0.5% SDS for 10 minutes at 62° C. Chromatin was digested with 100 U of MboI restriction enzyme (NEB). Ends of the restriction fragments were filled-in and labeled with a biotinylated nucleotide and then ligated. Nuclei were pelleted, proteins were digested with proteinase K, and crosslinks were reversed by heating at 68° C. overnight. DNA was sheared in a Covaris focused ultrasonicator to a length of 300-500 bp. Size-selected DNA was split for processing with two workflows—10% of the material was used for preparation of a regular Hi-C library (unconverted control) and 90% of the DNA was used for Hi-Culfite library construction. Hi-C libraries were finished by enriching for biotinylated ligation junctions through binding to T1 streptavidin beads (Thermo Fisher) and preparing the library for Illumina sequencing performing the end-repair, A-tailing and adapter ligation steps with DNA attached to the beads. Libraries were amplified directly off the beads and purified for subsequent Illumina sequencing.
(§4) DNA for Hi-Culfite was first treated with sodium bisulfite using EpiTect Fast bisulfite conversion kit (Qiagen) following the kit's instructions and extending each of the two 60° C. conversion incubations to 20 minutes. Converted DNA was purified without addition of an RNA carrier to the binding buffer. Biotinylated ligation junctions in purified bisulfite-converted DNA were captured on 15 μl C1 streptavidin beads (Thermo Fisher) in denaturing binding buffer (10 mM Tris pH 7.5; 5 mM EDTA; 500 mM LiCl; 0.5% Igepal CA630; 0.2% SDS; 4 M Urea) for 10 minutes at 55° C. DNA was washed twice with binding buffer at 55° C. and once with 10 mM Tris. Beads were resuspended in 15 μl of 10 mM Tris, and libraries were detached from the beads by heating for 5 minutes at 95° C. After separating on a magnet, library construction for Illumina sequencing was performed on the supernatant containing ssDNA library using Accel-NGS Methyl-Seq kit (Swift Biosciences) following the kit's manual.
Methylation Track Generation with MethylDackel: Duplicate Hi-C contacts were marked as duplicates in the methylation BAM. Applicants then called the program Methyl Dackel extract with the flag “-F 1024”; this ignored duplicates reads but kept all other mapped reads with MAPQ ≥10. MethylDackel generated CpG methylation tracks, a cytosine coverage report, and an input file for the analysis program MethylKit26. […]

For another assay, the system named is Hap1 cells. The assay is described as follows: Hi-Culfite on Hap1 cells treated with 5-azacytidine (methylation inhibition experiment). In kind it is cell-based. Conditions: for CpG C->T conversion: DMSO control 37.66%.
From the text: as §1, §2, §3
as §4, with “Beads were resuspended in 15 μl of 10 mM Tris, and libraries were detached from the beads by heating for 5 minutes at 95° C. After separating on a magnet, library construction for Illumina sequencing was performed on the supernatant containing ssDNA library using Accel-NGS Methyl-Seq kit (Swift Biosciences) following the kit's manual.” left out
Methylation Track Generation with MethylDackel: Duplicate Hi-C contacts were marked as duplicates in the methylation BAM. Applicants then called the program Methyl Dackel extract with the flag “-F 1024”; this ignored duplicates reads but kept all other mapped reads with MAPQ ≥10. […]

`Nc1ncn([C@@H]2O[C@H](CO)[C@@H](O)[C@H]2O)c(=O)n1` [5-azacytidine]: the “CpG C->T conversion” value was 69.46% in the assay on GM12878 cells (GM12878, 1 μM 5-azacytidine in DMSO, 8 days); 75.08% in the assay with GM12878 cells (GM12878, 5 μM 5-azacytidine in DMSO, 8 days); 86.16% in the assay on Hap1 cells (Hap-1, 1 μM 5-azacytidine in DMSO, 8 days); 85.79% with Hap1 cells (Hap-1, 5 μM 5-azacytidine in DMSO, 8 days). For the same compound, the “impact on nuclear architecture / chromosome-level nuclear organization (contact maps, eigenvectors)” value was “did not discern an impact on nuclear architecture; also recorded: no effect on chromosome-level nuclear organization” in the assay on GM12878 cells (GM12878, 1 uM and 5 uM, 8 days, vs DMSO); “did not discern an impact on nuclear architecture; also recorded: no effect on chromosome-level nuclear organization” in the assay on Hap1 cells (Hap1, 1 uM and 5 uM, 8 days, vs DMSO). Further, the “looping signal by Aggregate Peak Analysis” value was “no significant changes in looping signal” in the assay with GM12878 cells (GM12878, increasing 5-azacytidine concentration) and “no significant changes in looping signal” with Hap1 cells (HapI, increasing 5-azacytidine concentration). The “genome-wide decline of methylation (on average)” value with GM12878 cells (GM12878 treated with 5-azacytidine, average stated jointly for GM12878 and HapI) is given as 2 fold; in the assay with Hap1 cells (HapI treated with 5-azacytidine, average stated jointly for GM12878 and HapI), 2 fold. Besides, in the assay with GM12878 cells (increasing concentration of 5-azacytidine, GM12878 CTCF motifs), the “nucleosome occupancy and directional methylation asymmetry at CTCF motifs (aggregate methylation analysis)” value was “no changes to nucleosome occupancy and directional methylation asymmetry”.

Values taken from patent US20220251640A1, “METHODS OF DETERMINATION OF GENOME ARCHITECTURE AND EPIGENETIC PROFILE” (THE BROAD INSTITUTE, INC., priority 2019, published 2022).
